# How the values were obtained:
# [1] = system: GAPDH mRNA in NK-92 cells; assay: GAPDH gene knockdown activity of siGAPDH-encapsulated lipid nanoparticle in NK-92 cells (RT-qPCR); type: cell-based, human; settings: siGAPDH-encapsulated LNP, siRNA 10-90 nM, 24 hours after transfection
# Experimental: A NK cell line (NK-92 or NK-92MI) was transfected with each lipid nanoparticle. The knockdown activity of the siGAPDH- or siSMAD3-encapsulated lipid nanoparticle was examined by RT-qPCR using RNA extracted from the cells 24 hours later as a template.
# First, the NK cell line was recovered into a 50 mL tube and centrifuged (130×g, 4° C., 5 min). The supernatant was removed, and the cells were suspended in 10 mL of a culture medium (Opti-MEM), counted, and then resuspended into 4×10^6 cells/mL in a culture medium. […]
# The cells were recovered into a 1.5 mL tube from each well and centrifuged (800×g, 4° C., 3 min). […] Then, absorbance was measured using micro-volume spectrophotometer “Nano drop” (manufactured by Thermo Fisher Scientific Inc.) to measure the concentration and purity of the RNA.
# Reverse-transcription reaction was performed with the recovered RNA as a template using an oligo dT primer and a random primer (6 mars) in a kit for reverse-transcription reaction (“PrimeScript RT reagent kit”, manufactured by Takara Bio Inc.). Then, a GAPDH or SMAD3 mRNA level was measured by real-time PCR with the obtained cDNA as a template using relative quantification based on the ΔΔCt method and β-actin (ACTB) as an endogenous gene. […]
# [2] = pKa of lipid nanoparticle measured using TNS; type: physicochemical; settings: apparent pKa of the pH-sensitive cationic lipid constituting a lipid nanoparticle
# Experimental: The pKa of lipid nanoparticles was measured using […] (TNS). TNS (final concentration: 0.75 mM) and the lipid nanoparticles (final concentration: 30 mM) were first mixed in a buffer solution adjusted to each pH. The fluorescence intensity of the prepared mixed solution was measured using a microplate reader.
Compound,GAPDH gene knockdown activity ([GAPDH mRNA level]/[ACTB mRNA level]) [1],pKa [2]
CCCCCCCC/C=C\CCCCCCCC(=O)OCCCCCCC(O)(CCCCCCOC(=O)CCCCCCC/C=C\CCCCCCCC)CCCCN(C)C [CL1H6],high gene knockdown activity at a small content ratio,8.2
CCCCCCCC/C=C\CCCCCCCC(=O)OCCCCCCC(O)(CCCCCCOC(=O)CCCCCCC/C=C\CCCCCCCC)CCCCN(CCC)CCC [CL4H6],–,6.35
CCCCCCCC/C=C\CCCCCCCC(=O)OCCCCCCC(O)(CCCCCCOC(=O)CCCCCCC/C=C\CCCCCCCC)CCCCOC(=O)C1CCN(C)CC1 [CL15H6],–,7.3
CCCCC/C=C\C/C=C\CCCCCCCCC(O)(CCCCCCCC/C=C\C/C=C\CCCCC)CCCCN(C)C [YSK12-C4],–,8.2

# Source: patent US20240050477A1, “LIPID NANOPARTICLE” (NATIONAL UNIVERSITY CORPORATION HOKKAIDO UNIVERSITY, priority 2021, published 2024)
